Assay results published in ChEMBL document CHEMBL1156950, “Synthesis and biological evaluation of 4-anilinoquinolines as potent inhibitors of epidermal growth factor receptor” (J Med Chem, 2010).

Experiments:
[1] = target: Mitogen-activated protein kinase 11 (Homo sapiens) (UniProt Q15759); assay: Inhibition of p38beta at 10 uM assessed as residual activity by [33P]ATP radioactive filter binding assay relative to control
[2] = target: Serine/threonine-protein kinase pim-3 (Homo sapiens) (UniProt Q86V86); assay: Inhibition of PIM3 at 10 uM assessed as residual activity by [33P]ATP radioactive filter binding assay relative to control
[3] = target: Serine/threonine-protein kinase PAK 5 (Homo sapiens) (UniProt Q9P286); assay: Inhibition of PAK5 at 10 uM assessed as residual activity by [33P]ATP radioactive filter binding assay relative to control
[4] = target: Tyrosine-protein kinase CSK (Homo sapiens) (UniProt P41240); assay: Inhibition of CSK at 10 uM assessed as residual activity by [33P]ATP radioactive filter binding assay relative to control
Sequence of Tyrosine-protein kinase CSK (Homo sapiens) (P41240 2-450 limits assumed): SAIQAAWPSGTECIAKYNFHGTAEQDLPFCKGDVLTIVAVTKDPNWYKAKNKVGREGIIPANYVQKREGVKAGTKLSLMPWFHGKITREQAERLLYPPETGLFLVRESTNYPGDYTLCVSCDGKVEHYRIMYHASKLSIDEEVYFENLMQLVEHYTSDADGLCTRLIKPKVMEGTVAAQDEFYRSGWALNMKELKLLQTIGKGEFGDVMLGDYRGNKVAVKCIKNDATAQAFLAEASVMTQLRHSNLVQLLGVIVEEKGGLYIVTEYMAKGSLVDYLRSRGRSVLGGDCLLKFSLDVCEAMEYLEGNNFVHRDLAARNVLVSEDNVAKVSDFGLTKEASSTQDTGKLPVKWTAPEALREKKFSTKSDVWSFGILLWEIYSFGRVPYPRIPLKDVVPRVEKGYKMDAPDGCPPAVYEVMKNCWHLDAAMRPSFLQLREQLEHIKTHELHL

[5] = target: Ribosomal protein S6 kinase alpha-3 (Homo sapiens) (UniProt P51812); assay: Inhibition of RSK2 at 10 uM assessed as residual activity by [33P]ATP radioactive filter binding assay relative to control
[6] = target: Serine/threonine-protein kinase pim-2 (Homo sapiens) (UniProt Q9P1W9); assay: Inhibition of PIM2 at 10 uM assessed as residual activity by [33P]ATP radioactive filter binding assay relative to control
Sequence of Serine/threonine-protein kinase pim-2 (Homo sapiens) (Q9P1W9 whole entry, looked up): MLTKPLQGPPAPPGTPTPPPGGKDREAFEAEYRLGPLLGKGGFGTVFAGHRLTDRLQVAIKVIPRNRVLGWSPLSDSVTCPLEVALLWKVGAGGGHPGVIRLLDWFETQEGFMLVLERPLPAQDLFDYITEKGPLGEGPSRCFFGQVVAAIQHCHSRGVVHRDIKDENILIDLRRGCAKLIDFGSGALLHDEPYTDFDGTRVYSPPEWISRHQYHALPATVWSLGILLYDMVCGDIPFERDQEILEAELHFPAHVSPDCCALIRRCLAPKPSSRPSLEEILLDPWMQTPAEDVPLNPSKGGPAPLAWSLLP

[7] = target: SRSF protein kinase 1 (Homo sapiens) (UniProt Q96SB4); assay: Inhibition of SRPK1 at 10 uM assessed as residual activity by [33P]ATP radioactive filter binding assay relative to control
Sequence of SRSF protein kinase 1 (Homo sapiens) (Q96SB4 whole entry): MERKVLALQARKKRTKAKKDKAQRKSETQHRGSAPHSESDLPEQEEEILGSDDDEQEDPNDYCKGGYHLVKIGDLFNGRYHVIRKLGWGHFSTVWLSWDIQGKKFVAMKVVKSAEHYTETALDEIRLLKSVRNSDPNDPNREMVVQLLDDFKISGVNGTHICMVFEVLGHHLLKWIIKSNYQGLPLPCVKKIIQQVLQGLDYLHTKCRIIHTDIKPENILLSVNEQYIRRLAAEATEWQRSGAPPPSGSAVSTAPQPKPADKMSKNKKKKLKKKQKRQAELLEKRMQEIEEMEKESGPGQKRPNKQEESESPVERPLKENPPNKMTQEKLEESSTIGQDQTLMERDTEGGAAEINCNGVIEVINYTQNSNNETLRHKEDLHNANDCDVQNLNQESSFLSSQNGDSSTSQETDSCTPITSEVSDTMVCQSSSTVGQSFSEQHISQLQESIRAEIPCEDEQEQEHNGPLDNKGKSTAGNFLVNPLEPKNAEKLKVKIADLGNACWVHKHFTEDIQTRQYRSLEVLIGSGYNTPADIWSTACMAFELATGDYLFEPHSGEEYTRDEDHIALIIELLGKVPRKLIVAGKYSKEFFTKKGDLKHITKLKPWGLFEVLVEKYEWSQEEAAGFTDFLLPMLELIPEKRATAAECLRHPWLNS

[8] = target: Serine/threonine-protein kinase MARK2 (Homo sapiens) (UniProt Q7KZI7); assay: Inhibition of MARK2 at 10 uM assessed as residual activity by [33P]ATP radioactive filter binding assay relative to control
[9] = target: Insulin receptor-related protein (Homo sapiens) (UniProt P14616); assay: Inhibition of IRR at 10 uM assessed as residual activity by [33P]ATP radioactive filter binding assay relative to control
[10] = target: Serine/threonine-protein kinase Sgk1 (Homo sapiens) (UniProt O00141); assay: Inhibition of SGK1 at 10 uM assessed as residual activity by [33P]ATP radioactive filter binding assay relative to control
Sequence of Serine/threonine-protein kinase Sgk1 (Homo sapiens) (O00141 whole entry): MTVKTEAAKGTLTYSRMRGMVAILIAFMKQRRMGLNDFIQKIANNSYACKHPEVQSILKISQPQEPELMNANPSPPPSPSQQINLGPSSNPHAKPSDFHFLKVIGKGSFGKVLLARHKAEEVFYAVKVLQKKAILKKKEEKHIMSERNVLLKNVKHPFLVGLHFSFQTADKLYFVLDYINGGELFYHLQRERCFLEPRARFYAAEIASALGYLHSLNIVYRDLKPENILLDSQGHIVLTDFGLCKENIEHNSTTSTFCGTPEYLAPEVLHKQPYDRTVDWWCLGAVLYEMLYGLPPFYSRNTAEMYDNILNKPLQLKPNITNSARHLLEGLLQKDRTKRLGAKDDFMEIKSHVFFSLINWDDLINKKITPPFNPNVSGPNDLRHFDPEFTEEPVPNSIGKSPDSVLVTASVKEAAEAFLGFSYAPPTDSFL

[11] = target: Mitogen-activated protein kinase 3 (Homo sapiens) (UniProt P27361); assay: Inhibition of ERK1 at 10 uM assessed as residual activity by [33P]ATP radioactive filter binding assay relative to control
[12] = target: Serine/threonine-protein kinase Chk1 (Homo sapiens) (UniProt O14757); assay: Inhibition of CHK1 at 10 uM assessed as residual activity by [33P]ATP radioactive filter binding assay relative to control
[13] = target: MAP kinase-activated protein kinase 5 (Homo sapiens) (UniProt Q8IW41); assay: Inhibition of PRAK at 10 uM assessed as residual activity by [33P]ATP radioactive filter binding assay relative to control
[14] = target: Mitogen-activated protein kinase 15 (Homo sapiens) (UniProt Q8TD08); assay: Inhibition of ERK8 at 10 uM assessed as residual activity by [33P]ATP radioactive filter binding assay relative to control
[15] = target: Insulin receptor (Homo sapiens) (UniProt P06213); assay: Inhibition of His-IR at 10 uM assessed as residual activity by [33P]ATP radioactive filter binding assay relative to control
Sequence of Insulin receptor (Homo sapiens) (P06213 28-758 limits assumed): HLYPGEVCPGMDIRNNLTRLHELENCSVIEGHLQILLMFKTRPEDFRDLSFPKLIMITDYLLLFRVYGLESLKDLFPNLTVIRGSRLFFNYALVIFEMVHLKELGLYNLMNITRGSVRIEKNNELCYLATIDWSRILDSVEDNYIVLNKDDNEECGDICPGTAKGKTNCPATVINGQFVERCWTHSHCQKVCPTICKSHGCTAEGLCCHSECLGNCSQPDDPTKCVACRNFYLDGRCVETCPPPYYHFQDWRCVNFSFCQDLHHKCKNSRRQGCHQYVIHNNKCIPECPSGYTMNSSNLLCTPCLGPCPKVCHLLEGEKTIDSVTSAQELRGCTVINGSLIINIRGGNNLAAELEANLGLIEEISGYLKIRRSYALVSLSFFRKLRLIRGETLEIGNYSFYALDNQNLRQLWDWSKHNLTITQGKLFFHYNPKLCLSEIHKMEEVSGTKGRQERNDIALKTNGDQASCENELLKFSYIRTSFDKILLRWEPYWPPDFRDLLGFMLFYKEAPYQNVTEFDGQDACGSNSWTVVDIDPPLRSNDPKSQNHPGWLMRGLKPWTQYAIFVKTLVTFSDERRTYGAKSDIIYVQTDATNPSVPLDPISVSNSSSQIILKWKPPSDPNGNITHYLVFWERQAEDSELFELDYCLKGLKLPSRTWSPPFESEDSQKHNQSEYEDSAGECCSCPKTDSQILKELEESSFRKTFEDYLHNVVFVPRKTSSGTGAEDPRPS
Sequence of Insulin receptor (Homo sapiens) (P06213 763-1382 limits assumed): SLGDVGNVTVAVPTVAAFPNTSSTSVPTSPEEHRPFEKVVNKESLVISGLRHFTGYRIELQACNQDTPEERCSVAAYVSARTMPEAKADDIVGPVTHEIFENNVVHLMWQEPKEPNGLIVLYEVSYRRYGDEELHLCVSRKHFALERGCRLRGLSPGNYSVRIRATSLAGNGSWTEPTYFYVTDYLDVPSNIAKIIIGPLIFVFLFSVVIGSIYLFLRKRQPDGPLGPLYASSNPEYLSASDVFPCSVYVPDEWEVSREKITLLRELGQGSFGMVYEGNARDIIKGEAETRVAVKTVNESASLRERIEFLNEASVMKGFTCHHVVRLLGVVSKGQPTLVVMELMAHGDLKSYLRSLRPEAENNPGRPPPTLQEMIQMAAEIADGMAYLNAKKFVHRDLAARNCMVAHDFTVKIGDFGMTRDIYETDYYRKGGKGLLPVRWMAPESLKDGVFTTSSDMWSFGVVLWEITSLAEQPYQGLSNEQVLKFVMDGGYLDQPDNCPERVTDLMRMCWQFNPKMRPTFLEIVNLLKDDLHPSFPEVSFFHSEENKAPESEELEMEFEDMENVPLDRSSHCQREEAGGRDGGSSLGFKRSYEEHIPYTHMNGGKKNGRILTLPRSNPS

[16] = target: Dual specificity protein kinase TTK (Homo sapiens) (UniProt P33981); assay: Inhibition of TTK at 10 uM assessed as residual activity by [33P]ATP radioactive filter binding assay relative to control
Sequence of Dual specificity protein kinase TTK (Homo sapiens) (P33981 whole entry): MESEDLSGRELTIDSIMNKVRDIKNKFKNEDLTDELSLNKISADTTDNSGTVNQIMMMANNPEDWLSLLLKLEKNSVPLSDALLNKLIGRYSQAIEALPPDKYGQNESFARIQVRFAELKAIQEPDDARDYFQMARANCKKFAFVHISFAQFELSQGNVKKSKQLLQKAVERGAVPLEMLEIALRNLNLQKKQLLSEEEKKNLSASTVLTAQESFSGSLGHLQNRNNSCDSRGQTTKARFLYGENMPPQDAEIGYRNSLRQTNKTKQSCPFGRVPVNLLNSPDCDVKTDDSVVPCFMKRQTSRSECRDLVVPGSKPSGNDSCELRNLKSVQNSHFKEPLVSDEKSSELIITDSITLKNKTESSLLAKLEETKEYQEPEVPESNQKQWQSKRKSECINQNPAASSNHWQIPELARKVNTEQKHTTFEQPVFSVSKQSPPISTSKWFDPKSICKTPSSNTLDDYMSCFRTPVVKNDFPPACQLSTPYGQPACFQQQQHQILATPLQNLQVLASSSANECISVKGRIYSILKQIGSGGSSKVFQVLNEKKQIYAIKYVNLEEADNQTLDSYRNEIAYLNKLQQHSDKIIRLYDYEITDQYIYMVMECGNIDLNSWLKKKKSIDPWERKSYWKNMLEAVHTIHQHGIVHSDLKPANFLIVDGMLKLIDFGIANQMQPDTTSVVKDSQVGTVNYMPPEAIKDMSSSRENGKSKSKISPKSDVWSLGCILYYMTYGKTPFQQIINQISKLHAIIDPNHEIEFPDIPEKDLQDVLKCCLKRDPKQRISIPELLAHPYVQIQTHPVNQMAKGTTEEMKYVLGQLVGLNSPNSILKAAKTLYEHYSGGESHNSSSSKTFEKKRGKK

[17] = target: MAP kinase-activated protein kinase 2 (Homo sapiens) (UniProt P49137); assay: Inhibition of MAPKAP-K2 at 10 uM assessed as residual activity by [33P]ATP radioactive filter binding assay relative to control
[18] = target: Glycogen synthase kinase-3 beta (Homo sapiens) (UniProt P49841); assay: Inhibition of GSK3-beta at 10 uM assessed as residual activity by [33P]ATP radioactive filter binding assay relative to control
[19] = target: Inhibitor of nuclear factor kappa-B kinase subunit epsilon (Homo sapiens) (UniProt Q14164); assay: Inhibition of IKKepsilon at 10 uM assessed as residual activity by [33P]ATP radioactive filter binding assay relative to control
[20] = target: Homeodomain-interacting protein kinase 3 (Homo sapiens) (UniProt Q9H422); assay: Inhibition of HIPK3 at 10 uM assessed as residual activity by [33P]ATP radioactive filter binding assay relative to control
[21] = target: RAC-alpha serine/threonine-protein kinase (Homo sapiens) (UniProt P31749); assay: Inhibition of PKBalpha at 10 uM assessed as residual activity by [33P]ATP radioactive filter binding assay relative to control
[22] = target: Serine/threonine-protein kinase PLK1 (Homo sapiens) (UniProt P53350); assay: Inhibition of PLK1 at 10 uM assessed as residual activity by [33P]ATP radioactive filter binding assay relative to control
Sequence of Serine/threonine-protein kinase PLK1 (Homo sapiens) (P53350 whole entry): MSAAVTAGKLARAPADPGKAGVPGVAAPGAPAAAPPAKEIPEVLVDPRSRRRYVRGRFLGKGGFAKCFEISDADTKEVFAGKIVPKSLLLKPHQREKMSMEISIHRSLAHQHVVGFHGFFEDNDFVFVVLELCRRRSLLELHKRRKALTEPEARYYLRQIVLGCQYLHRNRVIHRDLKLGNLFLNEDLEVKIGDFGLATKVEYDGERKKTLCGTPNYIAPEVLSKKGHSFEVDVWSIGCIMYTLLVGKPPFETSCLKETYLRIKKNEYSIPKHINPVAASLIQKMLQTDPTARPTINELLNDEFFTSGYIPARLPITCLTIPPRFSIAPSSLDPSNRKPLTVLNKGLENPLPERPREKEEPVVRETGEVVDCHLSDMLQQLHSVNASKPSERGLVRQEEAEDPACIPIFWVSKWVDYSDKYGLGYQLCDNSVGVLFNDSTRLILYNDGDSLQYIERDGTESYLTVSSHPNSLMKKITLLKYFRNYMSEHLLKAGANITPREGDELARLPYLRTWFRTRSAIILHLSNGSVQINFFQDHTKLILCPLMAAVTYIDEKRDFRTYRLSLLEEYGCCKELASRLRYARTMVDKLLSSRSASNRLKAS

[23] = target: Receptor tyrosine-protein kinase erbB-4 (Homo sapiens) (UniProt Q15303); assay: Inhibition of HER4 at 10 uM assessed as residual activity by [33P]ATP radioactive filter binding assay relative to control
[24] = target: Receptor-interacting serine/threonine-protein kinase 2 (Homo sapiens) (UniProt O43353); assay: Inhibition of RIPK2 at 10 uM assessed as residual activity by [33P]ATP radioactive filter binding assay relative to control
[25] = target: Misshapen-like kinase 1 (Homo sapiens) (UniProt Q8N4C8); assay: Inhibition of MINK1 at 10 uM assessed as residual activity by [33P]ATP radioactive filter binding assay relative to control
[26] = target: MAP kinase-interacting serine/threonine-protein kinase 2 (Homo sapiens) (UniProt Q9HBH9); assay: Inhibition of MNK2 at 10 uM assessed as residual activity by [33P]ATP radioactive filter binding assay relative to control
[27] = target: Mitogen-activated protein kinase kinase kinase kinase 2 (Homo sapiens) (UniProt Q12851); assay: Inhibition of GCK at 10 uM assessed as residual activity by [33P]ATP radioactive filter binding assay relative to control
[28] = target: Mitogen-activated protein kinase 14 (Homo sapiens) (UniProt Q16539); assay: Inhibition of p38alpha at 10 uM assessed as residual activity by [33P]ATP radioactive filter binding assay relative to control
Sequence of Mitogen-activated protein kinase 14 (Homo sapiens) (Q16539 whole entry): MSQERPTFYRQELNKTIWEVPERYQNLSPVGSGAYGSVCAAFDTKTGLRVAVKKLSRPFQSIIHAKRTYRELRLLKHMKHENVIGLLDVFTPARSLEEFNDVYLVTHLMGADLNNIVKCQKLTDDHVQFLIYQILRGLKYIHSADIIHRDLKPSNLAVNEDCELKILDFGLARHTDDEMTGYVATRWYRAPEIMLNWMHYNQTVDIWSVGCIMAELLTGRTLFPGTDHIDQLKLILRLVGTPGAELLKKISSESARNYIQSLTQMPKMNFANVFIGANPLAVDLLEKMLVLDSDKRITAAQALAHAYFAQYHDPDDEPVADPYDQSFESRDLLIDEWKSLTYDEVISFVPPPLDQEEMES

[29] = target: Dual specificity tyrosine-phosphorylation-regulated kinase 3 (Homo sapiens) (UniProt O43781); assay: Inhibition of DYRK3 at 10 uM assessed as residual activity by [33P]ATP radioactive filter binding assay relative to control
[30] = Inhibition of VEGFR at 10 uM assessed as residual activity by [33P]ATP radioactive filter binding assay relative to control
[31] = cells; conditions: Mus musculus, BaF3, 96 h
Description: Growth inhibition of mouse BA/F3 cells expressing EGFR Del1 mutant after 96 hrs by cell titer-glo assay

[32] = cells; conditions: Mus musculus, BaF3, 96 h; remark: listed apart in the source
Description: Growth inhibition of mouse BA/F3 cells expressing EGFR Del5 mutant after 96 hrs by cell titer-glo assay

[33] = cells; conditions: Mus musculus, BaF3, 96 h; remark: listed apart in the source
Description: Growth inhibition of mouse BA/F3 cells expressing EGFR Del1 and Thr790Met mutant after 96 hrs by cell titer-glo assay

Compound	Activity [1]	Activity [2]	Activity [3]	Activity [4]	Activity [5]	Activity [6]	Activity [7]	Activity [8]	Activity [9]	Activity [10]	Activity [11]	Activity [12]	Activity [13]	Activity [14]	Activity [15]	Activity [16]	Activity [17]	Activity [18]	Activity [19]	Activity [20]	other results
CN(C)CCCC(=O)Nc1ccc2ncnc(Nc3cccc(Br)c3)c2c1	81%	32%	64%	63%	78%	62%	87%	82%	70%	72%	83%	79%	89%	78%	79%	86%	90%	96%	89%	106%	Activity [21]: 103%; Activity [22]: 95%; Activity [23]: -12%; Activity [24]: 10%; Activity [25]: 35%; Activity [26]: 14%; Activity [27]: 48%; Activity [28]: 63%; Activity [29]: 27%; Activity [30]: 50%; GI50 [31]: < 500 nM; GI50 [32]: < 500 nM; GI50 [33]: > 5000 nM
CN(C)CCCC(=O)Nc1ccc2nccc(Nc3cccc(Br)c3)c2c1	63%	66%	68%	73%	74%	75%	75%	77%	79%	82%	82%	83%	84%	85%	85%	85%	86%	89%	92%	96%	Activity [21]: 100%; Activity [22]: 109%; Activity [23]: -10%; Activity [24]: 10%; Activity [25]: 12%; Activity [26]: 21%; Activity [27]: 30%; Activity [28]: 30%; Activity [29]: 32%; Activity [30]: 36%; GI50 [31]: < 500 nM; GI50 [32]: < 500 nM; GI50 [33]: > 500 nM
